Our source for the Ki and half-life values is ChEMBL document CHEMBL1127995, “Synthesis and structure-activity relationships of pyrrolidine-modified analogs of the potent cholinergic channel activator, ABT 418” (Bioorg Med Chem Lett, 1994).

Series [1] has as its target Neuronal acetylcholine receptor; alpha4/beta2 (Rattus norvegicus, UniProt P09483+P12390). Description: Binding affinity for Nicotinic acetylcholine receptor alpha4-beta2 by displacement of [3H](-)-cytisine from whole rat brain membranes. Format: cell membranes, Membrane. On the technique in general: Displacement assays read how much labelled ligand stays bound in the presence of the test substance.

The nature of series [2]: In vitro half life was determined. Format: ADME.

Neuronal acetylcholine receptor; alpha4/beta2, sequence (P09483 whole entry): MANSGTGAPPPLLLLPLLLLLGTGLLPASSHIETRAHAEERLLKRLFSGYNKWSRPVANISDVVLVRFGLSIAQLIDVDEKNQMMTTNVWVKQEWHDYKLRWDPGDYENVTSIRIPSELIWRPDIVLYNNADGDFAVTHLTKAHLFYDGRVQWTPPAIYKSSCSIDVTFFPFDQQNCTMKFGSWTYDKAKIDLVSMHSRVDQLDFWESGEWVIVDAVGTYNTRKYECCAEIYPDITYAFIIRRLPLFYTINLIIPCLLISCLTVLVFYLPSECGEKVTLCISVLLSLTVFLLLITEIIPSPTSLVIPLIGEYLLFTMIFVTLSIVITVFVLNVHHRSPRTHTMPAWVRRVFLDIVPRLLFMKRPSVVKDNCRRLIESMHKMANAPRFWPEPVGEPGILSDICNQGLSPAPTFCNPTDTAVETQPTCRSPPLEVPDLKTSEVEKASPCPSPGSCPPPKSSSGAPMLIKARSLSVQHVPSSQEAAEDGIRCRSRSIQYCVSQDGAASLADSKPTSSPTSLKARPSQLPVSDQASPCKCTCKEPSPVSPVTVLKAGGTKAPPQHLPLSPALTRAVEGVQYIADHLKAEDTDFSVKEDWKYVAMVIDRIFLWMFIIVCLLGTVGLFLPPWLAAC
Neuronal acetylcholine receptor; alpha4/beta2, sequence (P12390 whole entry): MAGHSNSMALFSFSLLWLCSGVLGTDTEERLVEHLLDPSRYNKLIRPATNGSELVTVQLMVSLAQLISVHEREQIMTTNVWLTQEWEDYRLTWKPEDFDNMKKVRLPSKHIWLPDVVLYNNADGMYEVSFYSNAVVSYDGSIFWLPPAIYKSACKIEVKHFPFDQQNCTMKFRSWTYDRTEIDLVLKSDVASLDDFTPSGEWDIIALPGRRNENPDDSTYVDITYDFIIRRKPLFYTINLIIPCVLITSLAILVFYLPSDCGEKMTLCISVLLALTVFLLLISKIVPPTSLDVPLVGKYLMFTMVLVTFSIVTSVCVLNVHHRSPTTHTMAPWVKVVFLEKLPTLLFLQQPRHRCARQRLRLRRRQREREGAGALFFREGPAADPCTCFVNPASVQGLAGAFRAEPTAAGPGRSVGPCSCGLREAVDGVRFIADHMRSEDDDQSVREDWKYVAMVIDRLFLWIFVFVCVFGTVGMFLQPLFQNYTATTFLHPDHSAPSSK

Consider `Cc1cc([C@@H]2CC[C@H](c3ccccc3)N2C)on1`, for which the Ki (as a rule, a dissociation constant, usually derived from enzyme kinetics or from competition with a known ligand) in series [1] is greater than 10 µM. For the compound `Cc1cc([C@@H]2[C@@H](CO)CCN2C)on1`, in series [1], the Ki is greater than 10 µM. Take `COC(=O)CC1CC[C@@H](c2cc(C)no2)N1C` (some centres undefined): the Ki in series [1] came to 3.5 µM. Regarding `Cc1cc([C@@H]2CC[C@@H](C)N2C)on1`, the half-life (as a rule, the time needed for the level to fall by half in the phase considered) in series [2] worked out at 26 min. The same compound showed a Ki in series [1] of 0.071 µM. In turn, `Cc1cc([C@@H]2CC[C@@H](c3ccccc3)N2C)on1` registered an inhibitory constant (Ki) in series [1] of 8 µM.

Turning to `CCCC[C@@H]1CC[C@@H](c2cc(C)no2)N1C`, the affinity in series [1] corresponds to a Ki of 1.02 µM. On to `CCCC[C@H]1CC[C@@H](c2cc(C)no2)N1C`, for which the Ki in series [1] was found to be 3.67 µM. Compared with the last compound, the Ki is about 3.6-fold higher. Regarding `Cc1cc([C@@H]2CC[C@H](C)N2C)on1`, the half-life in series [2] was 48.3 min. In series [1], this compound had a Ki of 5 µM. For `Cc1cc([C@@H]2C(C)CCN2C)on1` (single isomer, unassigned), the Ki in series [1] was greater than 10 µM.

Regarding `Cc1cc([C@@H]2C(COC(=S)Oc3ccccc3)CCN2C)on1` (single isomer, unassigned), affinity in series [1] was put at a Ki of 0.84 µM. For `Cc1cc([C@@H]2CCCN2C)on1` [ABT-418], in series [2], the half-life worked out at 47.3 min. This compound also had a Ki in series [1] of 0.003 µM.
